According to patent US20230416329A1, “A PEPTIDE WITH DISULFIDE BONDS AND INHIBITORY ACTIVITY AGAINST SERINE PROTEASES, DERIVED HYBRID PEPTIDES THEREOF, AND USES THEREOF” (INSTITUTE OF MATERIA MEDICA , CHINESE ACADEMY OF MEDICAL …, priority 2020, published 2023):

Key:
chymotrypsin = chymotrypsin (Bos taurus, UniProt P00766); assay: in vitro; details: isolated enzyme chymotrypsin, pH 7.8, Remaining peak area (%)/chymotrypsin
How it was run: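 Peptide and 0.05 μg/μL chymotrypsin were preincubated at 37 °C for 5 min, then mixed. Aliquots taken from 1.5 up to 60.0 min were quenched with 10% TFA, and remaining peptide was measured as RP-HPLC peak area.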

trypsin = molecular target: T1, trypsin (Bos taurus, UniProt P00760); assay: in vitro; details: isolated enzyme trypsin, pH 7.8
T1 sequence (P00760 24-246): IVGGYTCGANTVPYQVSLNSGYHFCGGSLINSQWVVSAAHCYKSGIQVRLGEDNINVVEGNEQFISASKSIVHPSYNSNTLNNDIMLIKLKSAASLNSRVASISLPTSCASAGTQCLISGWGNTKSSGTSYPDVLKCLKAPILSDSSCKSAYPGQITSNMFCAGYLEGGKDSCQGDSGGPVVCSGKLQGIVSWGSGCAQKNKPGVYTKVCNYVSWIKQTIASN
How it was run: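 Peptides were preincubated for 5 min at 37 °C and then digested with 0.05 μg/μL trypsin solution (stock). Remaining intact peptide was quantified as RP-HPLC peak area.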

[1] = Stability of GLP-1 and its analogues in human serum; details: 25% (v/v) human serum
DPP-IV = DPP-IV (Homo sapiens, UniProt P27487); assay: Tolerance of GLP-1 and its analogues to DPP-IV (RP-HPLC remaining peak area); format: in vitro ADME; details: peptide 25 μM, DPP-IV 0.5 ng/μL, 37° C.
Procedure: (§1) Mix by centrifugation at 8000 rpm for 30 seconds.
(2) Arrange a certain volume of 0.005 μg/μL DPP-IV solution in another sterile EP.

NEP24.11 = NEP24.11 (Homo sapiens, UniProt P08473); assay: Tolerance of GLP-1 and its analogues to NEP24.11 (RP-HPLC remaining peak area); format: in vitro ADME; details: peptide 30 μM, NEP24.11 1.0 ng/μL, 37° C.
Procedure: as §1
Arrange a certain volume of 0.04 μg/μL NEP24.11 enzyme solution in another sterile EP.

Sequence of DPP-IV (P27487 whole entry, species assumed): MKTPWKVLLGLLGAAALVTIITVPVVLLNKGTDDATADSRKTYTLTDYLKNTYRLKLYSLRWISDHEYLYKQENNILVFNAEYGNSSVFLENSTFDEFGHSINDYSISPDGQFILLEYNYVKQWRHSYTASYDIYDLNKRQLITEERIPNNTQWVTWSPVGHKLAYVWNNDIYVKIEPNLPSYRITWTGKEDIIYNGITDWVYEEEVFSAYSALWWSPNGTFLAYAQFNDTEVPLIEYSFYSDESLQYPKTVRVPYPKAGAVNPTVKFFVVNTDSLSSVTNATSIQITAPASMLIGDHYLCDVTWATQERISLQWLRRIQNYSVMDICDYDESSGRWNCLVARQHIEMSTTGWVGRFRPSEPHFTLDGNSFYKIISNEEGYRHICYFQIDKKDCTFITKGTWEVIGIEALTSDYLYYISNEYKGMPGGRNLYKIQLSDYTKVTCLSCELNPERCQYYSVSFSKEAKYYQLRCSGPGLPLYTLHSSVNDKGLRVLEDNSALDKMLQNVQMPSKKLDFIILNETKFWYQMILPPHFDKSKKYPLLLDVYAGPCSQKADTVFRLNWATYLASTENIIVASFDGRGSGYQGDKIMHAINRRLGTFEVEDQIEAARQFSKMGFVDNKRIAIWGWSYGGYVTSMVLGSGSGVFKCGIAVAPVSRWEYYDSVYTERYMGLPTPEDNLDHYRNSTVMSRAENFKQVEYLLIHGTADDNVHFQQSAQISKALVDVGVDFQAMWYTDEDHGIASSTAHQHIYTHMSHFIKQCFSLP
Sequence of NEP24.11 (P08473 whole entry): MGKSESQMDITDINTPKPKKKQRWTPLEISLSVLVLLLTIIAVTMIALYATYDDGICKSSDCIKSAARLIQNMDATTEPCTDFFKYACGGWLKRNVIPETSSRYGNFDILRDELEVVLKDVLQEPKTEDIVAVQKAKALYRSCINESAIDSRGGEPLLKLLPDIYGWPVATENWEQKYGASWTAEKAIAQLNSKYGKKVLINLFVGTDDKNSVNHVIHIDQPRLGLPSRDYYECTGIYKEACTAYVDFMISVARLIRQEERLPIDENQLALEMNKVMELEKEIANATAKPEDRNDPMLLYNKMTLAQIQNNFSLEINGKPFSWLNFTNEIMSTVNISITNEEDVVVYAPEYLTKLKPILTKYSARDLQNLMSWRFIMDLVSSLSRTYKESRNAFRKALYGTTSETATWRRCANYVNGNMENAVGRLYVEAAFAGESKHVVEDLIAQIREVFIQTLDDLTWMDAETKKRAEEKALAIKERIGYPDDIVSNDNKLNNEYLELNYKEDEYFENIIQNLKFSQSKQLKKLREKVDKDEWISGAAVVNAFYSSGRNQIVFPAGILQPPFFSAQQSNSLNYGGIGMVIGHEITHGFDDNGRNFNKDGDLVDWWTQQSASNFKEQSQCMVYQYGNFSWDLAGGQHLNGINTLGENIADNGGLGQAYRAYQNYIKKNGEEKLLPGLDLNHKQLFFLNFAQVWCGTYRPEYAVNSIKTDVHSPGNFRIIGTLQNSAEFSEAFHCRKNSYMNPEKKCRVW

Which remaining at 0.025 h, 60 μM (chymotrypsin) does the source give for `CC[C@H](C)[C@H](NC(=O)[C@H](Cc1ccccc1)NC(=O)[C@H](CCC(=O)O)NC(=O)[C@H](CCCCN)NC(=O)[C@H](C)NC(=O)[C@H](C)NC(=O)[C@H](CCC(N)=O)NC(=O)CNC(=O)[C@H](CCC(=O)O)NC(=O)[C@H](CC(C)C)NC(=O)[C@H](Cc1ccc(O)cc1)NC(=O)[C@H](CO)NC(=O)[C@H](CO)NC(=O)[C@@H](NC(=O)[C@H](CC(=O)O)NC(=O)[C@H](CO)NC(=O)[C@@H](NC(=O)[C@H](Cc1ccccc1)NC(=O)[C@@H](NC(=O)CNC(=O)[C@H](CCC(=O)O)NC(=O)[C@H](C)NC(=O)[C@H](Cc1c[nH]cn1)NC(=O)CNC(=O)CNC(=O)[C@@H](NC(=O)[C@@H]1CCCN1C(=O)[C@@H](NC(=O)CNC(=O)CNC(=O)[C@@H]1CCCN1C(=O)[C@H](Cc1ccccc1)NC(=O)[C@@H]1CSSC[C@H](NC(=O)[C@H](CCCNC(=N)N)NC(=O)CN)C(=O)N[C@@H]([C@@H](C)O)C(=O)N[C@@H](CCCCN)C(=O)N[C@@H](CO)C(=O)N[C@@H]([C@@H](C)CC)C(=O)N2CCC[C@H]2C(=O)N2CCC[C@H]2C(=O)N[C@@H]([C@@H](C)CC)C(=O)N1)[C@@H](C)CC)[C@@H](C)CC)[C@@H](C)O)[C@@H](C)O)C(C)C)C(=O)N[C@@H](C)C(=O)N[C@@H](Cc1c[nH]c2ccccc12)C(=O)N[C@@H](CC(C)C)C(=O)N[C@H](C(=O)N[C@@H](CCCCN)C(=O)NCC(=O)N[C@@H](CCCNC(=N)N)C(=O)NCC(=O)NCC(=O)N[C@@H](CCCCN)C(=O)O)C(C)C` [BT1-D-GLP-1] here?
Its remaining at 0.025 h, 60 μM is 68.7 ± 1.6%.

And the remaining at 0.05 h, 60 μM (chymotrypsin)?
Its remaining at 0.05 h, 60 μM is 61.9 ± 1.5%.

And the remaining at 0.075 h, 60 μM (chymotrypsin)?
The remaining at 0.075 h, 60 μM was 57.4 ± 2.7%.

What about the remaining at 0.1 h, 60 μM (chymotrypsin) of the same compound?
The remaining at 0.1 h, 60 μM was 53.1 ± 0.5%.

What about the remaining at 0.15 h, 60 μM (chymotrypsin) of the same compound?
Its remaining at 0.15 h, 60 μM is 49.8 ± 2.8%.

And the remaining at 0.025 h, 60 μM (trypsin)?
Its remaining at 0.025 h, 60 μM is 97.3 ± 8.8%.

And the remaining at 0.05 h, 60 μM (trypsin)?
Its remaining at 0.05 h, 60 μM is 96.6 ± 2%.

And the remaining at 0.075 h, 60 μM (trypsin)?
The remaining at 0.075 h, 60 μM was 90.4 ± 2.4%.

And the remaining at 0.1 h, 60 μM (trypsin)?
The remaining at 0.1 h, 60 μM was 90.3 ± 2.5%.

And the remaining at 0.15 h, 60 μM (trypsin)?
Its remaining at 0.15 h, 60 μM is 89.7 ± 3.4%.

And the remaining at 0.25 h, 60 μM (trypsin)?
The remaining at 0.25 h, 60 μM was 87.3 ± 2.6%.

And the remaining at 0.5 h, 60 μM (trypsin)?
The remaining at 0.5 h, 60 μM was 88.6 ± 4.4%.

And the remaining at 1 h, 60 μM (trypsin)?
Its remaining at 1 h, 60 μM is 87.7 ± 6.2%.

And the “Remaining peak area (%)/human serum” value ([1]; 0.0 h, peptide 0.03 mM, 37° C.)?
Its value is 100.0 ± 0.0%.

What about the “serum stability (in words)” value [1] of the same compound?
The value was “good serum stability”.

And the remaining at 0.5 h, 0.03 mM ([1]; human, pH 7)?
The remaining at 0.5 h, 0.03 mM was 68.9 ± 7.1%.

And the remaining at 2 h, 0.03 mM ([1]; human, pH 7)?
Its remaining at 2 h, 0.03 mM is 95.1 ± 7.5%.

And the remaining at 4 h, 0.03 mM ([1]; human, pH 7)?
The remaining at 4 h, 0.03 mM was 89.4 ± 7.9%.

And the remaining at 8 h, 0.03 mM ([1]; human, pH 7)?
Its remaining at 8 h, 0.03 mM is 54.8 ± 4.1%.

What about the remaining at 12 h, 0.03 mM ([1]; human, pH 7) of the same compound?
The remaining at 12 h, 0.03 mM was 49.7 ± 2.5%.

What about the “Remaining peak area (%)/DPP-IV” value (DPP-IV; 0.0 h) of the same compound?
Its value is 100.0 ± 0.0%.

And the remaining at 0.5 h, 25 μM (DPP-IV; isolated DPP-IV enzyme in buffer, pH 8, 0.5 h)?
The remaining at 0.5 h, 25 μM was 72.3 ± 2.4%.

And the remaining at 2 h, 25 μM (DPP-IV; isolated DPP-IV enzyme in buffer, pH 8, 2.0 h)?
The remaining at 2 h, 25 μM was 75.3 ± 1.5%.

And the remaining at 4 h, 25 μM (DPP-IV; isolated DPP-IV enzyme in buffer, pH 8, 4.0 h)?
The remaining at 4 h, 25 μM was 72.6 ± 2%.

And the remaining at 8 h, 25 μM (DPP-IV; isolated DPP-IV enzyme in buffer, pH 8, 8.0 h)?
Its remaining at 8 h, 25 μM is 82 ± 3.2%.

What about the remaining at 12 h, 25 μM (DPP-IV; isolated DPP-IV enzyme in buffer, pH 8, 12.0 h) of the same compound?
The remaining at 12 h, 25 μM was 82.5 ± 4.9%.

What about the “Remaining peak area (%)/NEP24.11” value (NEP24.11; 0.0 h) of the same compound?
Its value is 100.0 ± 0.0%.

And the remaining at 0.5 h, 30 μM (NEP24.11; isolated NEP24.11 enzyme in buffer, pH 7.4, 0.5 h)?
Its remaining at 0.5 h, 30 μM is 88.2 ± 2.4%.

What about the remaining at 2 h, 30 μM (NEP24.11; isolated NEP24.11 enzyme in buffer, pH 7.4, 2.0 h) of the same compound?
The remaining at 2 h, 30 μM was 85.2 ± 0.5%.

What about the remaining at 4 h, 30 μM (NEP24.11; isolated NEP24.11 enzyme in buffer, pH 7.4, 4.0 h) of the same compound?
Its remaining at 4 h, 30 μM is 79.1 ± 3.2%.

And the remaining at 8 h, 30 μM (NEP24.11; isolated NEP24.11 enzyme in buffer, pH 7.4, 8.0 h, read-out: Remaining peak area (%)/NEP24.11)?
Its remaining at 8 h, 30 μM is 74 ± 1.3%.
